# Several values for one entry are separate records, joined by “and”; a condition that tells them apart may be missing. Equal entries are not always repeated.
# Test: Biotin binding capacity
# Details: 9-fold molar excess of [3H]biotin
# Method: (§1) Biotin Binding and Dissociation. Biotin binding capacity was determined by incubation of a known quantity of fusion protein with a 9-fold molar excess of [3H]biotin (NEN Research Products, Boston, Mass.). After removal of uncomplexed biotin using streptavidin-immobilized beads (Pierce Chemical; Rockford, Ill.), the amount of [^3H]biotin associated with the fusion protein was determined.
# as §1, with “Capacity.” for “and Dissociation.”, “[^3H]biotin” for “[3H]biotin”
substance,measurement,value
"recombinant streptavidin: recombinant streptavidin (Roche Biochemical), control in biotin binding and dissociation",Biotin binding capacity (average biotins bound),4 biotins and 4.0 biotins

# From US7144991B2, “Streptavidin expressed gene fusions and methods of use thereof” (Aletheon Pharmaceuticals, Inc., priority 1999, dated 2006)
